What was measured:
Format in all cases: in vivo
[1] = system: Barnyardgrass; test: pre-emergent herbicidal activity, soil incorporation; details: Table III, 2 WAT, 11.2 kg/h
Outline: (§1)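 Seeds/propagules placed on compacted top soil, then covered with soil admixed with composition containing known active-ingredient amount (soil incorporation); sub-irrigated on wet sand bench about two weeks under ordinary sunlight and watering. Emerged plants counted per species against untreated control; index from average percent control.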

[2] = system: Cocklebur; test: as above; details: Table III, 2 WAT, 11.2 kg/h
Outline: as §1

[3] = system: Yellow Nutsedge; test: as above; details: Table III, 2 WAT, 11.2 kg/h
Outline: as §1

[4] = system: Smartweed; test: as above; details: Table III, 2 WAT, 11.2 kg/h
Outline: as §1

[5] = system: Downy Brome; test: as above; details: Table III, 2 WAT, 11.2 kg/h
Outline: as §1

[6] = system: Johnsongrass; test: as above; details: Table III, 2 WAT, 11.2 kg/h
Outline: as §1

[7] = system: Lambsquarters; test: as above; details: Table III, 2 WAT, 11.2 kg/h
Outline: as §1

[8] = system: Canada Thistle; test: as above; details: Table III, 2 WAT, 11.2 kg/h
Outline: as §1

[9] = system: Quackgrass; test: as above; details: Table III, 2 WAT, 11.2 kg/h
Outline: as §1

[10] = system: Morningglory; test: as above; details: Table III, 2 WAT, 11.2 kg/h
Outline: as §1

[11] = system: Velvetleaf; test: as above; details: Table III, 2 WAT, 11.2 kg/h
Outline: as §1

[12] = system: Barnyardgrass; test: post-emergent herbicidal activity, greenhouse
Outline: (§2)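 Seeds or propagules sown in compacted top soil, grown 2–3 weeks in greenhouse, then sprayed with compound solution/suspension containing ~0.4% emulsifier at tabulated rates. Injury scored visually versus untreated controls at ~2 and 4 weeks after treatment, expressed as a herbicidal activity index.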

[13] = system: Smartweed; test: post-emergent herbicidal activity, greenhouse
Outline: as §2

[14] = system: Soybean; test: post-emergent herbicidal activity, greenhouse; details: Table II
Outline: as §2

[15] = system: Johnsongrass; test: post-emergent herbicidal activity, greenhouse; details: Table I, 4 WAT
Outline: as §2

[16] = system: Sugar Beet; test: post-emergent herbicidal activity, greenhouse; details: Table II
Outline: as §2

[17] = system: Wild Buckwheat; test: post-emergent herbicidal activity, greenhouse; details: Table II
Outline: as §2

[18] = system: Canada Thistle; test: post-emergent herbicidal activity, greenhouse; details: Table I, 4 WAT
Outline: as §2

[19] = system: Quackgrass; test: post-emergent herbicidal activity, greenhouse; details: Table I, 4 WAT
Outline: as §2

[20] = system: Rice; test: post-emergent herbicidal activity, greenhouse; details: Table II
Outline: as §2

[21] = system: Crabgrass; test: post-emergent herbicidal activity, greenhouse; details: Table II
Outline: as §2

[22] = system: Velvetleaf; test: post-emergent herbicidal activity, greenhouse
Outline: as §2

[23] = system: Sorghum; test: post-emergent herbicidal activity, greenhouse; details: Table II
Outline: as §2

CC(C#N)OP(=O)(O)CNCC(=O)OCCCl (stereo not drawn) [Example 7, glycine, N-[[(1-cyanoethoxy)hydroxyphosphinyl]methyl], 2-chloroethyl ester]
4 (100% control): post-emergent herbicidal activity index ([13]; Table I, 4 WAT, 5.6 kg/h) | post-emergent herbicidal activity index ([13]; Table I, 4 WAT, 11.2 kg/h) | post-emergent herbicidal activity index ([13]; Table II, 4 WAT, 0.28 kg/h) | post-emergent herbicidal activity index ([13]; Table II, 4 WAT, 5.6 kg/h) | post-emergent herbicidal activity index ([16]; 4 WAT, 0.28 kg/h) | post-emergent herbicidal activity index ([16]; 4 WAT, 5.6 kg/h)
1 (25-49% control): pre-emergent herbicidal activity index [6] | pre-emergent herbicidal activity index [8] | post-emergent herbicidal activity index ([13]; Table II, 4 WAT, 0.06 kg/h) | post-emergent herbicidal activity index ([14]; 4 WAT, 0.28 kg/h) | post-emergent herbicidal activity index ([15]; 5.6 kg/h) | post-emergent herbicidal activity index ([20]; 4 WAT, 0.28 kg/h) | post-emergent herbicidal activity index ([22]; Table II, 4 WAT, 0.06 kg/h)
0 (1-24% control): pre-emergent herbicidal activity index [1] | pre-emergent herbicidal activity index [2] | pre-emergent herbicidal activity index [3] | pre-emergent herbicidal activity index [4] | pre-emergent herbicidal activity index [5] | pre-emergent herbicidal activity index [7] | pre-emergent herbicidal activity index [9] | pre-emergent herbicidal activity index [10] | pre-emergent herbicidal activity index [11]
0 (0-24% control): post-emergent herbicidal activity index ([12]; Table II, 2 WAT, 0.01 kg/h) | post-emergent herbicidal activity index ([13]; Table II, 2 WAT, 0.01 kg/h) | post-emergent herbicidal activity index ([14]; 2 WAT, 0.01 kg/h) | post-emergent herbicidal activity index ([14]; 4 WAT, 0.06 kg/h) | post-emergent herbicidal activity index ([15]; 11.2 kg/h) | post-emergent herbicidal activity index ([16]; 2 WAT, 0.01 kg/h) | post-emergent herbicidal activity index ([16]; 4 WAT, 0.06 kg/h) | post-emergent herbicidal activity index ([17]; 2 WAT, 0.01 kg/h) | post-emergent herbicidal activity index ([17]; 4 WAT, 0.06 kg/h) | post-emergent herbicidal activity index ([19]; 11.2 kg/h) | post-emergent herbicidal activity index ([20]; 2 WAT, 0.01 kg/h) | post-emergent herbicidal activity index ([20]; 4 WAT, 0.06 kg/h) | post-emergent herbicidal activity index ([22]; Table II, 2 WAT, 0.01 kg/h) | post-emergent herbicidal activity index ([23]; 2 WAT, 0.01 kg/h)
2 (50-74% control): post-emergent herbicidal activity index ([12]; Table I, 4 WAT, 11.2 kg/h) | post-emergent herbicidal activity index ([12]; Table II, 4 WAT, 0.06 kg/h) | post-emergent herbicidal activity index ([12]; Table II, 4 WAT, 0.28 kg/h) | post-emergent herbicidal activity index ([14]; 4 WAT, 1.12 kg/h) | post-emergent herbicidal activity index ([17]; 4 WAT, 0.28 kg/h) | post-emergent herbicidal activity index ([17]; 4 WAT, 1.12 kg/h) | post-emergent herbicidal activity index ([17]; 4 WAT, 5.6 kg/h) | post-emergent herbicidal activity index ([18]; 5.6 kg/h) | post-emergent herbicidal activity index ([18]; 11.2 kg/h) | post-emergent herbicidal activity index ([19]; 5.6 kg/h) | post-emergent herbicidal activity index ([21]; 2 WAT, 0.01 kg/h) | post-emergent herbicidal activity index ([22]; Table II, 4 WAT, 0.28 kg/h) | post-emergent herbicidal activity index ([22]; Table II, 4 WAT, 1.12 kg/h) | post-emergent herbicidal activity index ([23]; 4 WAT, 0.06 kg/h) | post-emergent herbicidal activity index ([23]; 4 WAT, 0.28 kg/h) | post-emergent herbicidal activity index ([23]; 4 WAT, 1.12 kg/h)
3 (75-99% control): post-emergent herbicidal activity index ([12]; Table I, 4 WAT, 5.6 kg/h) | post-emergent herbicidal activity index ([12]; Table II, 4 WAT, 1.12 kg/h) | post-emergent herbicidal activity index ([12]; Table II, 4 WAT, 5.6 kg/h) | post-emergent herbicidal activity index ([13]; Table II, 4 WAT, 1.12 kg/h) | post-emergent herbicidal activity index ([14]; 4 WAT, 5.6 kg/h) | post-emergent herbicidal activity index ([16]; 4 WAT, 1.12 kg/h) | post-emergent herbicidal activity index ([20]; 4 WAT, 1.12 kg/h) | post-emergent herbicidal activity index ([20]; 4 WAT, 5.6 kg/h) | post-emergent herbicidal activity index ([21]; 4 WAT, 0.06 kg/h) | post-emergent herbicidal activity index ([22]; Table I, 4 WAT, 5.6 kg/h) | post-emergent herbicidal activity index ([22]; Table I, 4 WAT, 11.2 kg/h) | post-emergent herbicidal activity index ([22]; Table II, 4 WAT, 5.6 kg/h) | post-emergent herbicidal activity index ([23]; 4 WAT, 5.6 kg/h)

CC(C#N)OP(=O)(O)CNCC(=O)OCc1ccccc1 (stereo not drawn) [Example 10, glycine, N-[[(1-cyanoethoxy)hydroxyphosphinyl]methyl]-,phenylmethyl ester]
0 (0-24% control): post-emergent herbicidal activity index ([12]; Table II, 2 WAT, 0.011 kg/h) | post-emergent herbicidal activity index ([12]; Table II, 2 WAT, 0.056 kg/h) | post-emergent herbicidal activity index ([13]; Table II, 2 WAT, 0.011 kg/h) | post-emergent herbicidal activity index ([13]; Table II, 2 WAT, 0.056 kg/h) | post-emergent herbicidal activity index ([14]; 2 WAT, 0.011 kg/h) | post-emergent herbicidal activity index ([15]; 5.6 kg/h) | post-emergent herbicidal activity index ([16]; 2 WAT, 0.011 kg/h) | post-emergent herbicidal activity index ([16]; 2 WAT, 0.056 kg/h) | post-emergent herbicidal activity index ([17]; 2 WAT, 0.011 kg/h) | post-emergent herbicidal activity index ([17]; 2 WAT, 0.056 kg/h) | post-emergent herbicidal activity index ([20]; 2 WAT, 0.011 kg/h) | post-emergent herbicidal activity index ([20]; 2 WAT, 0.056 kg/h) | post-emergent herbicidal activity index ([20]; 4 WAT, 0.28 kg/h) | post-emergent herbicidal activity index ([21]; 2 WAT, 0.011 kg/h) | post-emergent herbicidal activity index ([22]; Table II, 2 WAT, 0.011 kg/h) | post-emergent herbicidal activity index ([22]; Table II, 2 WAT, 0.056 kg/h) | post-emergent herbicidal activity index ([23]; 2 WAT, 0.011 kg/h) | post-emergent herbicidal activity index ([23]; 2 WAT, 0.056 kg/h)
1 (25-49% control): post-emergent herbicidal activity index ([14]; 2 WAT, 0.056 kg/h) | post-emergent herbicidal activity index ([14]; 4 WAT, 0.28 kg/h) | post-emergent herbicidal activity index ([14]; 4 WAT, 1.12 kg/h) | post-emergent herbicidal activity index ([15]; 11.2 kg/h) | post-emergent herbicidal activity index ([17]; 4 WAT, 0.28 kg/h) | post-emergent herbicidal activity index ([18]; 5.6 kg/h) | post-emergent herbicidal activity index ([20]; 4 WAT, 1.12 kg/h) | post-emergent herbicidal activity index ([21]; 2 WAT, 0.056 kg/h) | post-emergent herbicidal activity index ([22]; Table II, 4 WAT, 0.28 kg/h) | post-emergent herbicidal activity index ([22]; Table II, 4 WAT, 1.12 kg/h) | post-emergent herbicidal activity index ([22]; Table II, 4 WAT, 5.6 kg/h)
3 (75-100% control): pre-emergent herbicidal activity index [8]
3 (75-99% control): post-emergent herbicidal activity index ([12]; Table I, 4 WAT, 11.2 kg/h) | post-emergent herbicidal activity index ([12]; Table II, 4 WAT, 5.6 kg/h) | post-emergent herbicidal activity index ([14]; 4 WAT, 5.6 kg/h) | post-emergent herbicidal activity index ([16]; 4 WAT, 0.28 kg/h) | post-emergent herbicidal activity index ([16]; 4 WAT, 5.6 kg/h) | post-emergent herbicidal activity index ([17]; 4 WAT, 5.6 kg/h) | post-emergent herbicidal activity index ([22]; Table I, 4 WAT, 5.6 kg/h) | post-emergent herbicidal activity index ([22]; Table I, 4 WAT, 11.2 kg/h) | post-emergent herbicidal activity index ([23]; 4 WAT, 5.6 kg/h)
4 (100% control): post-emergent herbicidal activity index ([13]; Table I, 4 WAT, 11.2 kg/h) | post-emergent herbicidal activity index ([13]; Table II, 4 WAT, 0.28 kg/h) | post-emergent herbicidal activity index ([13]; Table II, 4 WAT, 1.12 kg/h) | post-emergent herbicidal activity index ([13]; Table II, 4 WAT, 5.6 kg/h) | post-emergent herbicidal activity index ([21]; 4 WAT, 0.28 kg/h) | post-emergent herbicidal activity index ([21]; 4 WAT, 1.12 kg/h) | post-emergent herbicidal activity index ([21]; 4 WAT, 5.6 kg/h)
0 (1-24% control): pre-emergent herbicidal activity index [1] | pre-emergent herbicidal activity index [2] | pre-emergent herbicidal activity index [3] | pre-emergent herbicidal activity index [4] | pre-emergent herbicidal activity index [5] | pre-emergent herbicidal activity index [7] | pre-emergent herbicidal activity index [9] | pre-emergent herbicidal activity index [10] | pre-emergent herbicidal activity index [11]
2 (50-74% control): pre-emergent herbicidal activity index [6] | post-emergent herbicidal activity index ([12]; Table I, 4 WAT, 5.6 kg/h) | post-emergent herbicidal activity index ([12]; Table II, 4 WAT, 0.28 kg/h) | post-emergent herbicidal activity index ([12]; Table II, 4 WAT, 1.12 kg/h) | post-emergent herbicidal activity index ([16]; 4 WAT, 1.12 kg/h) | post-emergent herbicidal activity index ([17]; 4 WAT, 1.12 kg/h) | post-emergent herbicidal activity index ([18]; 11.2 kg/h) | post-emergent herbicidal activity index ([19]; 5.6 kg/h) | post-emergent herbicidal activity index ([19]; 11.2 kg/h) | post-emergent herbicidal activity index ([20]; 4 WAT, 5.6 kg/h) | post-emergent herbicidal activity index ([23]; 4 WAT, 0.28 kg/h) | post-emergent herbicidal activity index ([23]; 4 WAT, 1.12 kg/h)

Reference: patent US4442044A, “Process for preparing monoesters and diesters of N-alkyl substituted amino methyl phosphonic acid” (priority 1983, dated 1984)
